Laboratory results from patent publication US5763474A, “Substituted N-arylmethylamino derivatives of cyclobutene-3,4-diones” (American Home Products Corporation, priority 1997, dated 1998).
Read-outs that look alike come from different tables or passages of the source.

How the values were obtained:
[1] = test system: Isolated Rat Bladder Strips; experiment: Inhibition of Contractions in Isolated Rat Bladder Strips (15 mM KCl-enhanced contractile activity); parameters: species or system Sprague-Dawley rats; conditions: for activity at 30 µM: read-out: Percent contraction at 30 μM (C); for inhibition at 30 µM: read-out: Percent inhibition at 30 μM (I)
Source text: The smooth muscle relaxing activity of the compounds of this invention was established in accordance with standard pharmaceutically accepted test procedures with representative compounds as follows:
Sprague-Dawley rats (150-200 g) are rendered unconscious by CO2 asphyxiation and then euthanized by cervical dislocation. The bladder is removed into warm (37 deg.C.) physiological salt solution (PSS) of the following composition (mM): NaCl, 118.4; KCl, 4.7; CaCl2, 2.5; […]; NaHCO3, 24.9; KH2 PO4, 1.2; glucose, 11.1; EDTA, 0.023; gassed with […]; pH 7.4. The bladder is opened and then cut into strips 1-2 mm in width and 7-10 mm in length. The strips are subsequently suspended in a 10 mL tissue bath under an initial resting tension of 1.5 g. The strips are held in place by two surgical clips one of which is attached to a fixed hook while the other is attached to an isometric force transducer. […] The carbachol is then washed out and the tissue allowed to relax to its resting level of activity. Following a further 30 minute period of recovery an additional 15 mM KCl are introduced into the tissue bath. This increase in KCl concentration results in a large increase in the amplitude of spontaneous contractions (and initiation of contractions in previously quiescent strips) superimposed upon a small increase in basal tone. Following stabilization of this enhanced level of contractile activity, incremental increases in the concentration of test compound or vehicle are introduced into the tissue bath. Contractile activity is measured for each compound or vehicle concentration during the last minute of a 30 minute challenge.
The isometric force developed by the bladder strips is measured using a […]. The (IC50 concentration) is calculated from this concentration-response curve.

[2] = test system: hypertrophied bladder (detrussor) smooth muscle in conscious female rats; experiment: Inhibition of Spontaneous Contractions In Vivo in the hypertrophied rat bladder model (cystometry, conscious rats); parameters: species or system Female Sprague-Dawley rats
Protocol: In addition, we tested the ability of compounds to inhibit the hyperactivity of hypertrophied bladder (detrussor) smooth muscle in conscious female rats with hypertrophied bladders and thereby alleviate urinary incontinence in rats according to the following protocol described by Malmgren et al., J. Urol. 142:1134, 1989:
Female Sprague-Dawley rats, ranging in weight from 190-210 g are used. Up to 25 animals are prepared each time. After developemnt of bladder hypertrophy 4-8 animals are used per test.
Compounds are dissolved in PEG-200 and administered by gastric gavage or intraveneously in a volume of 5 ml/kg. For primary screening all drugs are administered at the arbitrary dose of 10 mg/kg p.o. to groups of 4 rats.
The animals are anesthetized with halothane. Through a midline incision the bladder and urethra are exposed and a ligature of 4-0 silk is tied around the proximal urethra in the presence of a stainless steel rod (1 mm diameter) to produce a partial occlusion. The rod is then removed. The abdominal region is closed using surgical staples and each rat receives 150,000 units of bicillin C-R. The animals are allowed six weeks to develop sufficient bladder hypertrophy. After six weeks, the ligature is removed under halothane anesthesia and a catheter (PE 60) with a cuff is placed in the dome of the bladder and secured with a purse string suture. The catheter is tunneled under the skin and exteriorized through an opening in the back of the neck. The abdominal incision is sutured and the free end of the catheter sealed. In order to prevent infections the rats receive an injection of bicillin C-R (150000 units/rat). Two days later the animals are used in cystometrical evaluations, The animals are placed in the metabolic cages and the catheter is attached (using a "T" connector) to a Statham pressure transducer (Model P23Db) and to a Harvard infusion pump. A plastic beaker attached to a force displacement transducer (Grass FTO3) is placed under the rat's cage to collect and record urine volume. Animals are allowed 15-30 minutes to rest before the saline infusion (20 ml/hr for 20 minutes) is started for the first cystometry period. Two hours after the first cystometry period, the rats are dosed with the vehicle or the test compound and one hour later a second cystometry is performed.
The following urodynamic variables are recorded:
The mean value of each variable is calculated before and after compound administration. For each compound the changes in the variables measured are compared to the values obtained before treatment and expressed as percent inhibition. The data are also subjected to 2-way analysis of variance to determine significant (p<0.05) changes in the variable measured. The most characteristic finding in this rat model is spontaneous bladder contractions which develop during filling.

[3] = 0.5 h, isolated rat bladder strips, 15 mM KCl, 30 minute challenge, read-out: IC50, inhibition of contractions in isolated rat bladder strips
[4] = 0.5 h, isolated rat bladder strips

CC(Nc1c(NCc2ccc(Cl)cc2Cl)c(=O)c1=O)C(C)(C)C (stereo not drawn) [Example 2, 3-(2,4-Dichlorobenzylamino)-4-(1,2,2-trimethylproylamino)-cyclobut-3-ene-1,2-dione]
IC50 [1, 3]: 2000 ± 1000 nM

Cc1cc(Cl)cc(Cl)c1CNc1c(N[C@H](C)C(C)(C)C)c(=O)c1=O [Example 4, (R)-3-(2,4-dichloro-6-methyl-benzylamino)-4-(1,2,2-trimethyl-propylamino)-cyclobut-3-ene-1,2-dione]
IC50 [1, 3]: 9800 ± 5100 nM

CCC(C)(C)Nc1c(NCc2ccc(Cl)cc2Cl)c(=O)c1=O [Example 6, 3-(2,4-Dichlorobenzylamino)-4-(1,1-dimethylpropylamino)-cyclobut-3-ene-1,2-dione]
% Red (F): percent reduction in the total number of spontaneous contractions ([2]; 1 mg/kg p.o., prior lot, mp. 195-196° C.): -40 ± 13% | % Red (F): percent reduction in the total number of spontaneous contractions ([2]; 3 mg/kg p.o., prior lot, mp. 195-196° C.): -58 ± 9% | % Red (F): percent reduction in the total number of spontaneous contractions ([2]; 10 mg/kg p.o., prior lot, mp. 195-196° C.): -68 ± 10% | IC50 [1, 3]: 110 ± 2 nM | IC50 ([1]; Rattus norvegicus, prior lot of this compound, mp. 195-196° C., n = 4, read-out: IC50, prior lot): 210 ± 40 nM

CCC(C)(C)Nc1c(N(Cc2ccc(Cl)cc2Cl)C(C)=O)c(=O)c1=O [Example 7, N-(2,4-dichloro-benzyl)-N-[2-(1,1-dimethyl-propylamino)-3,4-dioxo-cyclobut-1-enyl]-acetamide]
IC50 [1, 3]: 15800 ± 50 nM

CCCC(=O)N(Cc1ccc(Cl)cc1Cl)c1c(NC(C)(C)CC)c(=O)c1=O [Example 8, N-(2,4-dichloro-benzyl)-N-[2-(1,1-dimethyl-propylamino)-3,4-dioxo-cyclobut-1-enyl]-butyramide]
activity at 30 µM [1, 4]: 82.8 ± 26% | inhibition at 30 µM ([1]; isolated rat bladder strips): 10.2%

CCC(C)(C)Nc1c(NCc2c(C)cc(Cl)cc2Cl)c(=O)c1=O [Example 9, 3-(2,4-Dichloro-6-methyl-benzylamino)-4-(1,1-dimethyl-propylamino)-cyclobut-3-ene-1 2-dione]
% Red (F): percent reduction in the total number of spontaneous contractions ([2]; 1 mg/kg p.o.): -63 ± 13% | % Red (F): percent reduction in the total number of spontaneous contractions ([2]; 3 mg/kg p.o.): -82 ± 5% | IC50 [1, 3]: 200 ± 60 nM

CC(C)(C)Nc1c(NCc2ccc(Cl)cc2Cl)c(=O)c1=O [Example 11, 3-(t-Butylamino)-4-(2,4-dichlorobenzylamino) cyclobut-3-ene-1,2-dione]
IC50 [1, 3]: 1300 ± 600 nM

Cc1cc(Cl)cc(Cl)c1CNc1c(NC(C)(C)C)c(=O)c1=O [Example 12, 3-tert-butylamino-4-(2,4-dichloro-6-methyl-benzylamino)-cyclobut-3-ene-1,2-dione]
% Red (F): percent reduction in the total number of spontaneous contractions ([2]; 3 mg/kg p.o.): -53 ± 18% | IC50 [1, 3]: 220 ± 80 nM

CCC(CC)Nc1c(NCc2ccc(Cl)c(Cl)c2)c(=O)c1=O [Example 14, 3-(3,4-Dichloro-benzylamino)-4-(1-ethyl-propylamino)-cyclobut-3-ene-1,2-dione]
inhibition at 30 µM ([1]; isolated rat bladder strips): 22 ± 5.9%

CCC(CC)Nc1c(NCc2ccc(Cl)cc2Cl)c(=O)c1=O [Example 15, 3-(2,4-dichloro-benzylamino)-4-(1-ethyl-propylamino)-cyclobut-3-ene-1,2-dione]
IC50 [1, 3]: 2000 ± 800 nM

Cc1cc(Cl)cc(Cl)c1CNc1c(NCC(F)(F)C(F)(F)F)c(=O)c1=O [Example 16]
IC50 [1, 3]: 9350 ± 460 nM | inhibition at 30 µM ([1]; isolated rat bladder strips): 36 ± 3.2%

CCCC(=O)N(Cc1c(C)cc(Cl)cc1Cl)c1c(NC(C)(C)CC)c(=O)c1=O [Example 17, N-(2,4-Dichloro-6-methyl-benzyl)-N-[2-(1,1-dimethyl-2proplylamino)-3,4-dioxo-cyclobut-1-envl]-butyramide]
% Red (F): percent reduction in the total number of spontaneous contractions ([2]; 10 mg/kg p.o.): -87 ± 2% | activity at 30 µM [1, 4]: 245 ± 15%

CCC(C)(C)Nc1c(N(Cc2c(C)cc(Cl)cc2Cl)C(C)=O)c(=O)c1=O [Example 18, N-(2,4-Dichloro-6-methyl-benzyl)-N-[2-(1,1-dimethyl-propylamino)-3,4-dioxo-cyclobut-1-enyl]-acetamide]
inhibition at 30 µM ([1]; isolated rat bladder strips): 26 ± 13.8%

CCC(=O)N(c1c(NCc2c(C)cc(Cl)cc2Cl)c(=O)c1=O)C(C)(C)C [Example 19, N-(tert-butyl)-N-[2-(2,4-Dichloro-6-methyl-benzylamino)-3,4-dioxo-cylobut-1-enyl]-propionamide]
activity at 30 µM [1, 4]: 92.5 ± 44.2%

Cc1cc(Cl)cc(Cl)c1CNc1c(NC(C)C(C)(C)F)c(=O)c1=O (stereo not drawn) [Example 20, 3-(2,4-dichloro-6-methyl-benzylamino)-4-(1,2-dimethyl-2-fluoro-propylamino)-cyclobut-3-ene-1,2-dione]
IC50 [1, 3]: 2530 ± 190 nM

CC(C)(CO)Nc1c(NCc2ccc(Cl)cc2Cl)c(=O)c1=O [Example 22, 3-(2,4-Dichlorobenzylamino)-4-(2-hvdroxy-1,1-dimethylethylamino)-cyclobut-3-ene-1,2-dione]
IC50 [1, 3]: 24000 ± 9300 nM

C[C@@H](Nc1c(NCc2ccc(Cl)cc2Cl)c(=O)c1=O)C(C)(C)C [Example 23, (R)-3-(2,4-dichlorobenzylamino)-4-(1,2,2-trimethylpropylamino)-cyclobut-3-ene-1,2-dione]
IC50 [1, 3]: 340 ± 220 nM

CC(C)(C)Nc1c(NCc2ccc(Cl)c(Cl)c2)c(=O)c1=O [Example 24, 3-tert-Butylamino-4-(3,4-dichlorobenzylamino)-cyclobut-3-ene-1,2-dione]
activity at 30 µM [1, 4]: 30% | IC50 [1, 3]: 1480 ± 570 nM | inhibition at 30 µM ([1]; isolated rat bladder strips): 32.5 ± 3.1%

CCC(C)(C)Nc1c(NCc2ccc(Cl)c(Cl)c2)c(=O)c1=O [Example 25]
activity at 30 µM [1, 4]: 57.9 ± 4.2% | IC50 [1, 3]: 8900 ± 4000 nM

CCC(C)(C)Nc1c(N(Cc2c(C)cc(Cl)cc2Cl)C(=O)OC(C)(C)C)c(=O)c1=O [Example 26, (2,4-Dichloro-6-methyl-benzyl)-[2-(1,1-dimethyl-propylamino)-3,4-dioxo-cyelobut-1-enyl]-carbamic acid tert-butyl ester]
IC50 [1, 3]: 4500 ± 4200 nM
